In ChEMBL document CHEMBL1201862, “PubChem BioAssay data set” (2004):
The source made the active and inactive calls.

What was measured:
CAAX prenyl protease 2 = target: T1, CAAX prenyl protease 2 (Saccharomyces cerevisiae S288c, UniProt Q03530); type: biochemical
T1 sequence (Q03530 whole entry): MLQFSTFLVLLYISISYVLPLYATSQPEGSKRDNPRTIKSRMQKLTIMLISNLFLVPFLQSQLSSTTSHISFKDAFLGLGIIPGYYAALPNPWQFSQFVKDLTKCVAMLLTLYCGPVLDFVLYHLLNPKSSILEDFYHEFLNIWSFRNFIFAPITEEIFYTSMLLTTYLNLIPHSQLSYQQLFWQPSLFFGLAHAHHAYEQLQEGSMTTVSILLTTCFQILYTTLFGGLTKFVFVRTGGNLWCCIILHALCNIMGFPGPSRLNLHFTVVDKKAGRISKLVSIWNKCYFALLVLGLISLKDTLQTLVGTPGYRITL

Trypsin = Trypsin (Sus scrofa, UniProt P00761); test: porcine trypsin inhibitors, dose response, selectivity assay for Rce1 protease inhibitor project, biochemical, quenched peptide fluorescence, cherry-pick (AID 488789)
H9c2 = test: cells; type: functional, cell-based; details: Rattus norvegicus, H9c2, Myocardium
cells [1] = type: functional
[2] = target: Acyl-homoserine lactone acylase PvdQ (Pseudomonas aeruginosa (strain LESB58), UniProt Q9I194); test: P. aeruginosa PvdQ acylase inhibitors, dose response, biochemical, fluorescence, plate reader and imaging, cherry-picks (AID 493231)
HEK293 = test: cells; details: Homo sapiens
[3] = target: Nucleotide-binding oligomerization domain-containing protein 2 (Homo sapiens, UniProt Q9HC29); test: PubChem AID 2334; type: functional
Nucleotide-binding oligomerization domain-containing protein 2, sequence (Q9HC29 whole entry, the tested form may be a part): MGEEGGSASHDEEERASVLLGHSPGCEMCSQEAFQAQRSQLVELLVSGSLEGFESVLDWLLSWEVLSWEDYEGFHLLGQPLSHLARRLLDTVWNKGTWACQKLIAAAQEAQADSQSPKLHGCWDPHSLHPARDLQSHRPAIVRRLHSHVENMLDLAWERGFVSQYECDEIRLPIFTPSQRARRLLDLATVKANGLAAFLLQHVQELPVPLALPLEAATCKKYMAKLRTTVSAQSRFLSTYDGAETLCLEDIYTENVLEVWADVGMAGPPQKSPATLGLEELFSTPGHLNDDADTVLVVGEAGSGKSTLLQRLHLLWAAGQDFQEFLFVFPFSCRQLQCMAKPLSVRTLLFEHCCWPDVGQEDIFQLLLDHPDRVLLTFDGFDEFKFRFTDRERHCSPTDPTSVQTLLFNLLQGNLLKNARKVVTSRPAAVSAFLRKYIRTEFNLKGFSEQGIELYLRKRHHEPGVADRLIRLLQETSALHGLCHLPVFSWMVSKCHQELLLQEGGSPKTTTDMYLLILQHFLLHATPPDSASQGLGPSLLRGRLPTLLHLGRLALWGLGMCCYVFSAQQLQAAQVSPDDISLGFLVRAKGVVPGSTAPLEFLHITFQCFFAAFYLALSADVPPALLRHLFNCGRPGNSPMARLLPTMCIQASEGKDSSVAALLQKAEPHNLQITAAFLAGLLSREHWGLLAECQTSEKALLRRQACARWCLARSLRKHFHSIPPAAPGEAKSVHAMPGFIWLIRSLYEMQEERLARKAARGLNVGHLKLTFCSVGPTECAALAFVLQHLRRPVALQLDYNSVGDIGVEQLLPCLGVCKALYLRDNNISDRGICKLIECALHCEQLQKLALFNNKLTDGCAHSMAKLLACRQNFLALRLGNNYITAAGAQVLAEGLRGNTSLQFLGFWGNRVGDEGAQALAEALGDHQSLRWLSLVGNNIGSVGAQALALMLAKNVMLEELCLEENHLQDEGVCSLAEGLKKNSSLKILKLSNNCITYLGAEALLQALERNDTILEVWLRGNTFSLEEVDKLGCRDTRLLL

[4] = target: T2, Nucleotide-binding oligomerization domain-containing protein 1 (Homo sapiens, UniProt Q9Y239); test: NOD1 signaling inhibitors, SAR follow-up, revised (AID 2333); type: functional
T2 sequence (Q9Y239 whole entry): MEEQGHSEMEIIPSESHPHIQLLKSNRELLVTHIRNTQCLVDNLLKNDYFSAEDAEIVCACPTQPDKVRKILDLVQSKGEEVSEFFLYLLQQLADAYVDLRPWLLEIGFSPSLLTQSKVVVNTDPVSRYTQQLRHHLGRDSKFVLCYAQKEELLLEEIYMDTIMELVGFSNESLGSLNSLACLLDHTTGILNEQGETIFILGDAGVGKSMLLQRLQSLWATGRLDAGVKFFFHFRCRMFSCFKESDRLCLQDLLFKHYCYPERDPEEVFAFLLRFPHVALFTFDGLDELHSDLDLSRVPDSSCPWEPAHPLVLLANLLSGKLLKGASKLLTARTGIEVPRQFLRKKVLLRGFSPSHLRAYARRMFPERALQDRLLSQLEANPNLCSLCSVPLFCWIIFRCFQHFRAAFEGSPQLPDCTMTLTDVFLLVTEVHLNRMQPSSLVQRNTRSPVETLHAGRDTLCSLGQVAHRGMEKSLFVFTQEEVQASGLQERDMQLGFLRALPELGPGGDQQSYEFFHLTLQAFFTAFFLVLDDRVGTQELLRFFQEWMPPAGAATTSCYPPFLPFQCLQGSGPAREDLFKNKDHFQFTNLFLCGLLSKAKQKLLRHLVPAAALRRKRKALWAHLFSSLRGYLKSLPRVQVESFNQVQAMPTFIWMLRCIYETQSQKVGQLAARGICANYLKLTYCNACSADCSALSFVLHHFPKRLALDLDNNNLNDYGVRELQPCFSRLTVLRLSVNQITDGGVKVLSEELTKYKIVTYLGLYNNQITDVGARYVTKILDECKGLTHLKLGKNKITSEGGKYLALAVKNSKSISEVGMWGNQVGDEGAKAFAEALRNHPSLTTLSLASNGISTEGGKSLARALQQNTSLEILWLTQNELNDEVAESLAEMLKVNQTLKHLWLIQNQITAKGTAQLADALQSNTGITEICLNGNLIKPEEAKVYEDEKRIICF

Tumor necrosis factor = Tumor necrosis factor (Homo sapiens, UniProt P01375); test: TNFa-triggered NF-kB activation inhibitors, SAR follow-up, cell-based, revised (AID 2337); type: functional
Tumor necrosis factor, sequence (P01375 whole entry): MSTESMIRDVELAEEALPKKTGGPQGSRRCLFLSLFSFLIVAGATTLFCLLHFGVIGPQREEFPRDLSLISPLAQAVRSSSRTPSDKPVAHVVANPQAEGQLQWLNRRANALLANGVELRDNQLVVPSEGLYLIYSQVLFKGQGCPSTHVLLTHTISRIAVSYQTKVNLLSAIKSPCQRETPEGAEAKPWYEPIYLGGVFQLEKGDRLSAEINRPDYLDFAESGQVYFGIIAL

[5] = target: T3, Voltage-gated N-type calcium channel alpha-1B subunit/Amyloid beta A4 precursor protein-binding family A member 1 (Homo sapiens, UniProt Q00975+Q02410); type: protein assay
T3 sequence (Q00975 whole entry): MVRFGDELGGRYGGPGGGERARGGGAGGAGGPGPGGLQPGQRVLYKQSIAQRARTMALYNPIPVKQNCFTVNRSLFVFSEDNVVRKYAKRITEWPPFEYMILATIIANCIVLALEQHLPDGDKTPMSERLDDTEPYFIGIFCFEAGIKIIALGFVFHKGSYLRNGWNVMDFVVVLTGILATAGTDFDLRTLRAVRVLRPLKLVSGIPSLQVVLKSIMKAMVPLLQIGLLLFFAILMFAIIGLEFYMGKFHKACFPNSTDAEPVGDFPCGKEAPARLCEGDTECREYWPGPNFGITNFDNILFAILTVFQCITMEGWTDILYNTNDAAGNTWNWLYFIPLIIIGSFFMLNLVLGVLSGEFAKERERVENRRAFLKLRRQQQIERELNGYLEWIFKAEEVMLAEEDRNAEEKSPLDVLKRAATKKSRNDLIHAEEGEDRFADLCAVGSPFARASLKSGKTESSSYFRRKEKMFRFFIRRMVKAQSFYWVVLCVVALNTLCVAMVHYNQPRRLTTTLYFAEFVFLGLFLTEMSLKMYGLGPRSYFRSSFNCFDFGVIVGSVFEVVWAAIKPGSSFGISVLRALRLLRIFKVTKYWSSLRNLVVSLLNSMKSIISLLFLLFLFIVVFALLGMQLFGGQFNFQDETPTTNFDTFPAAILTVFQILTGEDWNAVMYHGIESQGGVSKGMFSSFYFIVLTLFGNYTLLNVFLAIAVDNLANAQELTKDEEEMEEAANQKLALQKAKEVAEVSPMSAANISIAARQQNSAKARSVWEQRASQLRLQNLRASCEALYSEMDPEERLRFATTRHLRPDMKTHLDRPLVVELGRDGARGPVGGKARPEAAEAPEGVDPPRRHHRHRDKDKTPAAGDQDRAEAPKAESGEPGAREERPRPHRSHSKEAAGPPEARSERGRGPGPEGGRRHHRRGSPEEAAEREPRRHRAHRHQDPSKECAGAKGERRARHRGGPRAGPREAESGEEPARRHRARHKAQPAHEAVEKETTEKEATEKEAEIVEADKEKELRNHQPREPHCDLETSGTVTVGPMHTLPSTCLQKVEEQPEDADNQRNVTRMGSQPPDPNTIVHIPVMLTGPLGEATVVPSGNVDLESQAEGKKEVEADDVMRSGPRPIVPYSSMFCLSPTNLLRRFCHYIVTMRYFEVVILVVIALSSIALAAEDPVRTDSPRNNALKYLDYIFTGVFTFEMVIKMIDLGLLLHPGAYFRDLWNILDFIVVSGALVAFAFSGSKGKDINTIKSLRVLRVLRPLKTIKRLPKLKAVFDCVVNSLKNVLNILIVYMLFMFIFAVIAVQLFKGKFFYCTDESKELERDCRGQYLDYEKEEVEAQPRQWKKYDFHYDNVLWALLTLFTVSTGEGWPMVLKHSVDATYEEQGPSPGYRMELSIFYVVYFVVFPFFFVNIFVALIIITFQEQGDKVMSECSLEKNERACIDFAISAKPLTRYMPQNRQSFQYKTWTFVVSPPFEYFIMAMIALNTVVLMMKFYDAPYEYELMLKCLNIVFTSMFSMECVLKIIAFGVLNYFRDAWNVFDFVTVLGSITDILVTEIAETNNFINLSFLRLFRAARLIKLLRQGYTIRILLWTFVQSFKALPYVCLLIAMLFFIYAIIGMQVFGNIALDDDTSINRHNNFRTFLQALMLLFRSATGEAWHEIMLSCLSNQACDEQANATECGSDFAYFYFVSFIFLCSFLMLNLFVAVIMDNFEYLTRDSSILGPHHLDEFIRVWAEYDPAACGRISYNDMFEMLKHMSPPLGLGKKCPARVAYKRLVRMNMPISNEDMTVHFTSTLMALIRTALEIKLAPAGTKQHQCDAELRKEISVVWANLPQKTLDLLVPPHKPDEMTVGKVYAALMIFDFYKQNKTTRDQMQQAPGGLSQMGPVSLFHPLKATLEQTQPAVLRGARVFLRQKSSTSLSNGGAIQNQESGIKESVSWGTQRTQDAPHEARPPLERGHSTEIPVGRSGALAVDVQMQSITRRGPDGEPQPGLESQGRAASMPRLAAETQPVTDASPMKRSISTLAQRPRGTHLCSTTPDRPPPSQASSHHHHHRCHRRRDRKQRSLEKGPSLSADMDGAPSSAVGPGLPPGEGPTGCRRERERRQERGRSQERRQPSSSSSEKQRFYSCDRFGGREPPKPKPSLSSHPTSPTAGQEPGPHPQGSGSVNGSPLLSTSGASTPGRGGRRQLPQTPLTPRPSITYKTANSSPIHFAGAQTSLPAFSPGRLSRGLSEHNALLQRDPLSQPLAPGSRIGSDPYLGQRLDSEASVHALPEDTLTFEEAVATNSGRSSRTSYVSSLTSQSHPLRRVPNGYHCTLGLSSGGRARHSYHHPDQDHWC
T3 sequence (Q02410 whole entry): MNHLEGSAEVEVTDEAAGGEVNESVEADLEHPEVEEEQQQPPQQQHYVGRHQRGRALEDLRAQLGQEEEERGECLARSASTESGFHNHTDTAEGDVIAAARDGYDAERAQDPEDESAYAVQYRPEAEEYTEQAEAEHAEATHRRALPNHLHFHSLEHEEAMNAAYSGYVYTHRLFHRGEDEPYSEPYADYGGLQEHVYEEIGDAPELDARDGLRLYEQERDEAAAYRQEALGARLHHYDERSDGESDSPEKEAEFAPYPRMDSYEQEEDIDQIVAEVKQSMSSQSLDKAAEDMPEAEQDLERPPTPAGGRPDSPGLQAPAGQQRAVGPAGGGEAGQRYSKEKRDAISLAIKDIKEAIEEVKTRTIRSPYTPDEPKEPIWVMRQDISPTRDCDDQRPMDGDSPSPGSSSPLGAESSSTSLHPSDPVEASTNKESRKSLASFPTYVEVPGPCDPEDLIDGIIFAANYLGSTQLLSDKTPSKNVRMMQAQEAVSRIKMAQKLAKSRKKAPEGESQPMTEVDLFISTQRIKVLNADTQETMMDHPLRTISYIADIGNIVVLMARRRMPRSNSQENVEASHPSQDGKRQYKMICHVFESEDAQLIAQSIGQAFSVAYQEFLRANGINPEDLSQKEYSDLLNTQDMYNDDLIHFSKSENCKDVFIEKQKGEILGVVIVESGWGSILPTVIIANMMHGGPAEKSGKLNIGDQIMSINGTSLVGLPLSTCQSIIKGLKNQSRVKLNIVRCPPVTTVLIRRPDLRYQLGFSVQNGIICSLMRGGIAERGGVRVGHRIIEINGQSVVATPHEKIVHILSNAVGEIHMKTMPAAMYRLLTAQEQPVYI

[6] = Luminescence Cell-Based Dose Response HTS to Identify Activators of Luciferase Translation or Activity in H4 […] Cells. [Related pubchem assays: 1829 (Project Summary), 1814 (Primary HTS)]; type: functional
[7] = Luminescence Cell-Based Dose Confirmation HTS to Identify Activators of 5'UTR Stem-Loop Driven Alpha-Synuclein mRNA Translation in H4 Neuroglioblastoma Cells. [Related pubchem assays: 1829 (Project Summary), 1814 (Primary HTS)]; type: functional
[8] = target: T3, Voltage-gated N-type calcium channel alpha-1B subunit/Amyloid beta A4 precursor protein-binding family A member 1; type: protein assay; remark: listed apart in the source
H4 = test: Luminescence Cell-Based Dose Response HTS to Identify Activators of 5'UTR Stem-Loop Driven Prion Protein mRNA Translation in H4 Neuroglioblastoma Cells. [Related pubchem assays: 1829 (Project Summary), 1814 (Primary HTS)]; type: functional; details: Homo sapiens
X-box-binding protein 1 = X-box-binding protein 1 (Homo sapiens, UniProt P17861); type: functional, Cricetulus griseus;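 also: confirmatory dose-response counter-screen serving a CHOP assay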
[9] = HEp-2 cell cytotoxicity, dose response, cytotoxicity control for RSV inhibitor project, HTS (AID 2410); type: functional; details: human respiratory syncytial virus
[10] = inhibitors of Bluetongue virus cytopathic effect, confirmation, arbovirus, BSR cells (AID 1250); type: functional;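 also: protection from viral cytopathic effect measured as cell viability by ATP luminescence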
cells [11] = test: cells
[12] = growth suppression of beta-catenin-knockout colon cells, dose response, cell-based, HCT116, human colon tumor (AID 1045); type: functional;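 also: HCT116 colon tumor cells with beta catenin knocked out; cells exposed to compound for 60 hours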
INS1 = test: beta cell apoptosis inhibitors, cytokine rescue, dose response, luminescence, retest (AID 449756); type: functional, cell-based; details: Rattus norvegicus;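 also: cell death triggered by IL-1 beta plus TNF-alpha plus IFN-gamma mixture; protective hits raise ATP signal compared with cytokine alone wells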
[13] = growth suppression of PTEN-null colon cells, dose response, cell-based, HCT116 PTEN knockout (AID 1047); type: functional;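 also: HCT116 colon tumor cells with PTEN knocked out; cells exposed to compound for 60 hours before readout; potency for loss of cell viability measured by luminescence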
Aspartyl aminopeptidase = Aspartyl aminopeptidase (Plasmodium falciparum 3D7, UniProt Q8I2J3)
Procathepsin L = Procathepsin L (Homo sapiens, UniProt P07711)
[14] = target: T4, Kappa-type opioid receptor (Homo sapiens, UniProt P41145); type: functional
[15] = target: T5, Microphthalmia-associated transcription factor (Homo sapiens, UniProt O75030); test: TRPM1 promoter luciferase signal decrease, dose response, MITF inhibitor project, cell-based, SK-MEL-5, cherry-picked, set 3 (AID 493073); type: functional
T5 sequence (O75030 whole entry): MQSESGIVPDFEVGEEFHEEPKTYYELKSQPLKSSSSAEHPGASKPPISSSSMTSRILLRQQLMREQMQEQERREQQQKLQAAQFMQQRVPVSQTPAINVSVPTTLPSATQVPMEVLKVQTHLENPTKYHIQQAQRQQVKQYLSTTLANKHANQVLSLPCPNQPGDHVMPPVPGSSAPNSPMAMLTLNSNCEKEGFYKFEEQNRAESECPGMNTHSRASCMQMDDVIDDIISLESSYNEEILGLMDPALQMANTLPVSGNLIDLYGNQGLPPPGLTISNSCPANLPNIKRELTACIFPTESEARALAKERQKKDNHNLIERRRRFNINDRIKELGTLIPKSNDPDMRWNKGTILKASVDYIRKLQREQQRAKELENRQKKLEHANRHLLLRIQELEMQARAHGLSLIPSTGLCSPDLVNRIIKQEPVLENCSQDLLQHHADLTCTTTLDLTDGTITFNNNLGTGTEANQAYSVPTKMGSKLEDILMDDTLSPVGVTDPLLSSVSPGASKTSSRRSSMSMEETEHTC

Beta-galactosidase = Beta-galactosidase (Escherichia coli, UniProt Q8VNN2); type: functional
Nonstructural protein 1 = Nonstructural protein 1 (Influenza A virus, UniProt Q194T2); type: functional, Influenza A virus (A/California/07/2009(H1N1))
[16] = target: T4, Kappa-type opioid receptor; type: functional; remark: listed apart in the source
[17] = target: Alkaline phosphatase, placental type (Homo sapiens, UniProt P05187); test: PLAP enzyme inhibitors, confirmation, biochemical, luminescence (AID 1512); type: functional
Alkaline phosphatase, placental type, sequence (P05187 whole entry): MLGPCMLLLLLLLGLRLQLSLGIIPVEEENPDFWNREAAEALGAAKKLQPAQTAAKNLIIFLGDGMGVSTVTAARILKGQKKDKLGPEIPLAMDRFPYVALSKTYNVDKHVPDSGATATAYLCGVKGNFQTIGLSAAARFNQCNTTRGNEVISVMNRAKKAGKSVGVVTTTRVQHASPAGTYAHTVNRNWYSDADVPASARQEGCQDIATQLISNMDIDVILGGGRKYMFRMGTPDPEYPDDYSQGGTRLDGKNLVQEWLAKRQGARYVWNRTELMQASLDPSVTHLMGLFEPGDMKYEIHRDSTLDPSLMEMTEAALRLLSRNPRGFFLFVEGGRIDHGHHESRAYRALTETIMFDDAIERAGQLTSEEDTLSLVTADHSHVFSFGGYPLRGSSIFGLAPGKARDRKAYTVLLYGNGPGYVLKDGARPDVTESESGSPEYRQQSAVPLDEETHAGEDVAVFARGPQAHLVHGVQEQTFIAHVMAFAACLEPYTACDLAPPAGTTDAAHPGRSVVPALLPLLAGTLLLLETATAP

[18] = target: T6, Tyrosine-protein phosphatase non-receptor type 7 (Homo sapiens, UniProt P35236); test: HePTP (PTPN7) phosphatase inhibitor potency, SAR follow-up, biochemical, set 2 (AID 449736); type: functional
T6 sequence (P35236 whole entry): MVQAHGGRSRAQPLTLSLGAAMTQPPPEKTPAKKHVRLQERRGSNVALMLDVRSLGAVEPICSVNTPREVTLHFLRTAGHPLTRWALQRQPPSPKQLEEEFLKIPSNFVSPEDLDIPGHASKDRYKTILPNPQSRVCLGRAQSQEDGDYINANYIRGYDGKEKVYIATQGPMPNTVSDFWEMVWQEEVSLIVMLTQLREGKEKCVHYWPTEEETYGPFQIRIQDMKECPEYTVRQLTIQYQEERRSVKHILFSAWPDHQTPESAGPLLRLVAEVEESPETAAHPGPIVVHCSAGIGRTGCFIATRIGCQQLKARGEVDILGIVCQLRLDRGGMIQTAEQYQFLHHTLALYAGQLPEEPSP

## NC(=O)c1nsc(C(=O)N(c2ccccc2F)C(C(=O)NCc2ccccc2)c2ccc(O)cc2)c1N (configuration not stated)
CAAX prenyl protease 2
  AC50: 13.8 µM (active)
Trypsin
  AC50: 12 µM (active)
H9c2
  IC50: > 79 µM (inactive)

## O=C(OCc1ccc(Cl)c(Cl)c1)c1ccccn1
Cells [1]
  IC50: 16.9 µM (active)
[2]
  AC50: 29.3 µM (active)

## CCOC1=CC(=O)OC(c2ccccc2)C1 (configuration not stated)
[2]
  AC50: 3.54 µM (active)

## Nc1nc2ccccc2n1C(=O)Cc1ccccc1
HEK293
  IC50: > 20 µM (inactive)
[3]
  IC50: > 20 µM (inactive)
[4]
  IC50: > 20 µM (inactive)
Tumor necrosis factor
  IC50: > 20 µM (inactive)

## COc1ccc(C(=O)Nc2nc3ccccc3n2Cc2ccc(Cl)cc2)cc1
HEK293
  IC50: > 20 µM (inactive)
[3]
  IC50: > 20 µM (inactive)
[4]
  IC50: > 20 µM (inactive)
Tumor necrosis factor
  IC50: > 20 µM (inactive)

## NC1=C(c2nc(-c3ccc(Cl)cc3)cs2)C(=O)CN1NC(=O)c1ccc(O)cc1
[5]
  IC50: 7.51 µM (active)
[6]
  EC50: 9.72 µM (active)
[7]
  EC50: > 120 µM (not active)
[8]
  IC50: > 50 µM (inactive)
H4
  EC50: 94.6 µM (active)

## CCCCCc1c(C)nc(Nc2ccccc2)nc1O
X-box-binding protein 1
  Absolute IC50 (XBP1): 10 µM

## CC(C)C[C@H](NC(=O)c1[nH]cnc1C(=O)N1CCN(C(=O)OC(C)(C)C)CC1)C(=O)OC(C)(C)C
[9]
  CC50: 13.3 µM (active)
[10]
  IC50: 34.8 µM (active)
Cells [11]
  IC50: 1.43 µM (active)

## CCC1(c2ccc(F)cc2)NC(=O)N(CC(=O)Nc2ccc(-c3nc4ccc(C)cc4s3)cc2)C1=O (configuration not stated)
[12]
  EC50: 12.3 µM (active)
INS1
  AC50: 8.98 µM (active)
[9]
  CC50: 15.5 µM (active)
X-box-binding protein 1
  Absolute IC50 (XBP1): 10 µM
[13]
  EC50: 7.37 µM (active)

## O=C(Nc1ccc(Cl)c(Cl)c1)Nn1cnnc1
Aspartyl aminopeptidase
  IC50: 0.837 µM (active)
Procathepsin L
  IC50: > 59.6 µM (not active)

## O=C(Nc1cccc(C(F)(F)F)c1)Nn1cnnc1
Aspartyl aminopeptidase
  IC50: 2.32 µM (active)
Procathepsin L
  IC50: > 59.6 µM (not active)

## C/C(=N\NC(=O)C1COc2ccccc2O1)c1ccccn1 (configuration not stated)
[14]
  IC50: 6.93 µM (active)
[15]
  AC50: 4.49 µM (active)
Beta-galactosidase
  EC50: > 31.5 µM (inactive)
Nonstructural protein 1
  IC50: 5.62 µM (active)
[16]
  IC50: > 32 µM

## Cc1cccc2nc(CSc3nc4ccccc4[nH]3)cn12
[17]
  IC50: > 100 µM (inactive)

## NS(=O)(=O)c1ccc(NC(=S)NC2CCN(Cc3ccccc3)CC2)cc1
[18]
  IC50: > 100 µM (inactive)

## COc1cc(NC(=O)c2cccs2)ccc1NC(=O)c1cc2ccccc2o1
[5]
  IC50: 11.2 µM (active)
[8]
  IC50: > 50 µM (inactive)

## NC1(C(Cl)(Cl)Cl)Oc2cc(Cl)c(Cl)cc2O1
[17]
  IC50: > 100 µM (inactive)
